# According to PubChem BioAssay AID1918933 (Molecular Pharmacology Branch, DTP, NCI, 2023):
# System: 186277-243-T-J2-PDC complex spheroid viability
# Assay: Anticancer human tumor 186277-243-T-J2-PDC patient-derived colon adenocarcinoma cell line growth inhibition
# Settings: for IC50: curve of first compound; for viability, T/C: stronger effect = lower value
# Text: Multicellular complex tumor spheroid response to LSD1 Inhibitor Iadademstat in combination with a variety of drugs and investigational agents in selected tumor cell lines
# The current study was undertaken to assess response to LSD1 inhibitors in combination with standard-of-care drugs and investigational agents in solid tumor complex spheroid models as well as in the K-562 leukemia. Complex spheroids include a stromal component modeled by human endothelial cells (HUVEC) and fibroblasts modeled by human mesenchymal stem cells (MSCs). The concentration ranges selected for each drug and investigational agent were based upon clinically achievable concentrations if the clinical Cmax of the agent was known.
# Compounds. The drugs and investigational agents used in this study are listed on Table 1. All of the agents used, including staurosporine (NSC755774) and gemcitabine (NSC613327), were obtained from the Developmental Therapeutics Program, NCI. FDA-approved anticancer drugs are available from the NCI at http://dtp.nci.nih.gov/branches/dscb/oncology_drugset_explanation.html. Drugs and investigational agents were >95% pure by proton nuclear magnetic resonance (NMR) and liquid chromatography/mass spectrometry (LC/MS). Stock solutions were prepared at 400x in DMSO, stored at -70 degrees C, and diluted in fresh medium prior to their use. The final concentration of DMSO in cell culture wells never exceeded 0.25% (v/v). The FDA-approved anticancer drug set is available from the Developmental Therapeutics Program at https://dtp.cancer.gov/organization/dscb/obtaining/available_plates.htm. All drugs and investigational agents were tested over a range starting from a high concentration at or near the clinical Cmax and decreasing in half-log increments. If the clinical Cmax for an agent had not been determined, the highest concentration tested was 10 microM.
# Cell Lines. The patient-derived cancer cell (PDC) lines: 292921-168-R-J2-PDC, K24384-001-R-PDC, and 521955-158-R2-J5-PDC pancreatic carcinomas, 556581-035-R-J1 ovarian carcinoma, 324938-238-R-J1-PDC, 855422-203-R-J1-PDC and 883617-216-R-J1-PDC urothelial bladder carcinomas, 743489-274-T-PDC renal cell carcinoma, 138582-R-J1 Merkel cell tumor, K60290-347-R-J1 and K57222-313-R-J1-PDC glioblastomas, 653999-131-R-J2-PDC, LG0703-F948-PDC, and 349418-098-R-PDC non-small cell lung carcinomas, 885512-296-R-J2-PDC, 171881-019-R-J1-PDC breast carcinomas and 186277-243-T-J2-PDC and 233499-124-R-J2-PDC colon carcinomas were obtained from the NCI Patient-Derived Models Repository (PDMR, https://pdmr.cancer.gov). The established cell lines NCI/ADR-RES (RRID:CVCL_14520 and OVCAR-5 (RRID:CVCL_1628) ovarian carcinomas, 786-O (RRID:CVCL_1051) and A498 (RRID:CVCL_A498) renal cell carcinoma, NCI-H211 (ATCC, cat. CRL-5824; RRID:CVCL_1529), NCI-H196 (ATCC, cat. CRL-5823, RRID:CVCL_1509), SW 1271 (ATCC, cat. CRL-2177, RRID:CVCL_1716) and NCI-H1876 (ATCC, cat. CRL-5902, RRID:CVCL_1503) small cell lung carcinomas, MDA-MB-231 (RRID:CVCL_0062) and MDA-MB-468 (RRID:CVCL_0419)breast carcinomas (10-12). Pooled donor human umbilical vein endothelial cells (HUVEC, Lonza, cat. CC-2519) and human mesenchymal stem cells (hMSC, Lonza, cat. PT-2501) were purchased from Lonza (Walkersville, MD).
# Cell Culture. All cells were maintained in an incubator at 37 degrees C and 5% CO2 with 95% humidity. The PDC lines were cultured according to standard operating procedures established by the NCI PDMR (https://pdmr.cancer.gov). Briefly all PDCs were thawed and cultured in Matrigel-coated flasks prepared with a working solution of 1X Ham's F-12 nutrient mix, without supplementation (Invitrogen, Waltham, MA, cat. 11765054), 100 U/mL penicillin-streptomycin (Invitrogen, cat. 15140122), and 2.5% Matrigel (Corning Inc., Corning, NY, cat. 354248) for the first three passages. […]
# 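Also: 7 day exposure to compounds.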
# 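For viability, T/C in this document: 100% = DMSO vehicle control viability.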
structure (smiles),measurement,setting,value
CC[C@@]1(O)C(=O)OCc2c1cc1n(c2=O)Cc2cc3c(CN(C)C)c(O)ccc3nc2-1 + NC1CC1c1ccc(-c2cccc(O)c2)cc1,IC50,second compound 0.1 µM,64.1 nM
same,IC50,second compound 0.316 µM,58.6 nM
same,IC50,second compound 1 µM,60.9 nM
same,IC50,second compound 3.16 µM,64.4 nM
same,IC50,second compound 10 µM,56.7 nM
same,"viability, T/C","second compound 0.1 µM, first compound 0.000316 µM",117%
same,"viability, T/C","second compound 0.1 µM, first compound 0.001 µM",125%
same,"viability, T/C","second compound 0.1 µM, first compound 0.00316 µM",153%
same,"viability, T/C","second compound 0.1 µM, first compound 0.01 µM",116%
same,"viability, T/C","second compound 0.1 µM, first compound 0.0316 µM",74.5%
same,"viability, T/C","second compound 0.1 µM, first compound 0.1 µM",34.9%
same,"viability, T/C","second compound 0.316 µM, first compound 0.000316 µM",101%
same,"viability, T/C","second compound 0.316 µM, first compound 0.001 µM",96.5%
same,"viability, T/C","second compound 0.316 µM, first compound 0.00316 µM",139%
same,"viability, T/C","second compound 0.316 µM, first compound 0.01 µM",118%
same,"viability, T/C","second compound 0.316 µM, first compound 0.0316 µM",71.7%
same,"viability, T/C","second compound 0.316 µM, first compound 0.1 µM",31.2%
same,"viability, T/C","second compound 1 µM, first compound 0.000316 µM",90.7%
same,"viability, T/C","second compound 1 µM, first compound 0.001 µM",108%
same,"viability, T/C","second compound 1 µM, first compound 0.00316 µM",127%
same,"viability, T/C","second compound 1 µM, first compound 0.01 µM",119%
same,"viability, T/C","second compound 1 µM, first compound 0.0316 µM",73.1%
same,"viability, T/C","second compound 1 µM, first compound 0.1 µM",32.5%
same,"viability, T/C","second compound 3.16 µM, first compound 0.000316 µM",101%
same,"viability, T/C","second compound 3.16 µM, first compound 0.001 µM",97.8%
same,"viability, T/C","second compound 3.16 µM, first compound 0.00316 µM",119%
same,"viability, T/C","second compound 3.16 µM, first compound 0.01 µM",131%
same,"viability, T/C","second compound 3.16 µM, first compound 0.0316 µM",76.3%
same,"viability, T/C","second compound 3.16 µM, first compound 0.1 µM",33.6%
same,"viability, T/C","second compound 10 µM, first compound 0.000316 µM",103%
same,"viability, T/C","second compound 10 µM, first compound 0.001 µM",96.4%
same,"viability, T/C","second compound 10 µM, first compound 0.00316 µM",123%
same,"viability, T/C","second compound 10 µM, first compound 0.01 µM",116%
same,"viability, T/C","second compound 10 µM, first compound 0.0316 µM",74%
same,"viability, T/C","second compound 10 µM, first compound 0.1 µM",26.7%
